In US11242537B2, “Method for improving sensitivity of plant to gibberellin inhibitor and use thereof” (CHINA AGRICULTURAL UNIVERSITY, priority 2017, dated 2022):

Legend:
ZmCPS::ga1-5 = test: Effect of DPC on plant height (step 4.1), ZmCPS::ga1-5; format: in vivo, Arabidopsis thaliana
Experimental: (§1) In the following examples, the growth conditions of Arabidopsis thaliana are: culturing in a growth chamber with a photoperiod of 16 h light/8 h dark, a light intensity of 60 μmol/m^2/s, a humidity of 60%-70%, and a temperature of 22° C.
(§2) The experiment was repeated three times, and the specific steps of each repeated experiment were as follows:
(§3) Thirty homozygous line plants of the HRP::ga1-1 of step 2 were randomly selected and randomly divided into three groups, ten plants in each group. On the 33rd day of sowing (the day of sowing was recorded as the first day of sowing), the plants of these three groups were treated as follows, respectively one group was sprayed with water (i.e., 0 mg/L DPC solution) and cultured for 12 days to obtain untreated HRP::ga1-1; one group was sprayed with 30 mg/L DPC solution and cultured for 12 days to obtain 30 mg/L DPC-treated HRP::ga1-1; the last group was sprayed with 500 mg/L aqueous DPC solution and cultured for 12 days to obtain 500 mg/L DPC-treated HRP::ga1-1.
(§4) According to the above method, the homozygous line plants of the HRP::ga1-1 were replaced with the homozygous line plants of the HRP::ga1-5, the homozygous line plants of the ZmCPS::ga1-1, the homozygous line plants of the ZmCPS::ga1-5, the homozygous line plants of the PsSuper1300::ga1-1 and the homozygous line plants of the PsSuper1300::ga1-5 respectively, the other steps were unchanged, and untreated HRP::ga1-5, 30 mg/L DPC-treated HRP::ga1-5, 500 mg/L DPC-treated HRP::ga1-5, untreated ZmCPS::ga1-1, 30 mg/L DPC-treated ZmCPS::ga1-1, 500 mg/L DPC-treated ZmCPS::ga1-1, untreated ZmCPS::ga1-5, 30 mg/L DPC-treated ZmCPS::ga1-5, 500 mg/L DPC-treated ZmCPS::ga1-5, untreated PsSuper1300::ga1-1, 30 mg/L DPC-treated PsSuper1300::ga1-1, 500 mg/L DPC-treated PsSuper1300::ga1-1, untreated PsSuper1300::ga1-5, 30 mg/L DPC-treated PsSuper1300::ga1-5 and 500 mg/L DPC-treated PsSuper1300::ga1-5 were obtained, respectively.
(§5) The plant heights of the above Arabidopsis thaliana before the treatment (FIG. 1) and after different treatments (FIG. 2 and Table 2) were measured.

pSuper1300::ga1-5 = test: Effect of DPC on plant height (step 4.1), empty vector pSuper1300::ga1-5; format: in vivo, Arabidopsis thaliana; conditions: for Plant height: 12 days; for Plant height reduction rate: relative to 0 mg/L
Experimental: as §1, §2, §3, §4, §5

ga1-5 = test: Effect of DPC on plant height (step 4.1), mutant ga1-5; format: in vivo, Arabidopsis thaliana; conditions: for Plant height: 12 days; for Plant height reduction rate: relative to 0 mg/L
Experimental: as §1, §2
When the ga1-1 was cultured to the 33rd day of sowing (the day of sowing was recorded as the first day of sowing), 30 plants were taken and randomly divided into three groups, ten plants in each group and the plants of these three groups were treated as follows, respectively: one group was sprayed with 0 mg/L DPC solution and cultured for 12 days to obtain untreated ga1-1; one group was sprayed with 30 mg/L aqueous DPC solution and cultured for 12 days to obtain 30 mg/L DPC-treated ga1-1; the last group was sprayed with 500 mg/L DPC solution and cultured for 12 days to obtain 500 mg/L DPC-treated ga1-1.
According to the above method, the ga1-1 was replaced with the ga1-5, the other steps were unchanged, and untreated ga1-5, 30 mg/L DPC-treated ga1-5, and 500 mg/L DPC-treated ga1-5 were obtained, respectively.
as §5

HRP::ga1-1 = test: Effects of different concentrations of DPC on plant height (step 4.2), HRP::ga1-1; format: in vivo, Arabidopsis thaliana
Experimental: as §1, §2
(§6) Seventy homozygous line plants of the HRP::ga1-1 of step 2 were randomly selected and randomly divided into seven groups, ten plants in each group. On the 33rd day of sowing (the day of sowing was recorded as the first day of sowing), the plants of these seven groups were treated as follows, respectively: one group was sprayed with water (i.e., 0 mg/L aqueous DPC solution) and cultured for 12 days to obtain untreated HRP::ga1-1; one group was sprayed with 30 mg/L aqueous DPC solution and cultured for 12 days to obtain 30 mg/L DPC-treated HRP::ga1-1; one group was sprayed with 50 mg/L aqueous DPC solution and cultured for 12 days to obtain 50 mg/L DPC-treated HRP::ga1-1; one group was sprayed with 100 mg/L aqueous DPC solution and cultured for 12 days to obtain 100 mg/L DPC-treated HRP::ga1-1; one group was sprayed with 300 mg/L aqueous DPC solution and cultured for 12 days to obtain 300 mg/L DPC-treated HRP::ga1-1; one group was sprayed with 500 mg/L aqueous DPC solution and cultured for 12 days to obtain 500 mg/L DPC-treated HRP::ga1-1; one group was sprayed with 1000 mg/L aqueous DPC solution and cultured for 12 days to obtain 1000 mg/L DPC-treated HRP::ga1-1.
(§7) The plant heights of the differently treated Arabidopsis thaliana were measured respectively (FIG. 3), and the average plant heights are shown in Table 3.

HRP::ga1-5 = test: Effects of different concentrations of DPC on plant height (step 4.2), HRP::ga1-5; format: in vivo, Arabidopsis thaliana
Experimental: as §1, §2, §6
According to the above method, the homozygous line plant of the HRP::ga1-1 was replaced with the pure homozygous line plant of the HRP::ga1-5, and the other steps were unchanged to obtain untreated HRP::ga1-5, 30 mg/L DPC-treated HRP::ga1-5, 50 mg/L DPC-treated HRP::ga1-5, 100 mg/L DPC-treated HRP::ga1-5, 300 mg/L DPC-treated HRP::ga1-5, 500 mg/L DPC-treated HRP::ga1-5 and 1000 mg/L DPC-treated HRP::ga1-5, respectively.
as §7

[1] = tested on: transgenic zmcps-ko line with the HRP, line No. 443; test: Sensitivity of transgenic zmcps-ko line with the HRP to DPC, line No. 443; format: in vivo, maize
Text: (§8) The GV3101-pSuper1300-HRP of Example 1 was transformed into the ZmCPSKO maize embryos of step 1.1 by using the Agrobacterium to infect the maize immature embryos, and positive transgenic maize with the HRP was obtained by screening, and the transgenic maize with the HRP contained the target gene HRP. The GV3101-pSuper1300-ZmCPS and GV3101-pSuper1300 were used as controls, and the ZmCPS control maize and empty vector control maize were obtained, respectively.
(§9) The WT and transgenic plants were sprayed with DPC during jointing stage to test their DPC sensitivity: the whole plant was sprayed with 500 ppm […] DPC when the maize was grown to 7 leaf expansion phase and 12 leaf expansion phase. Plant height and ear height were measured 2 weeks after treatment and after tasseling.

[2] = tested on: transgenic zmcps-ko line with the HRP, line No. 614; test: Sensitivity of transgenic zmcps-ko line with the HRP to DPC, line No. 614; format: in vivo, maize; conditions: 500 ppm (5 mM) DPC spray
Text: as §8, §9

[3] = tested on: transgenic zmcps-ko line with the HRP, line No. 623; test: Sensitivity of transgenic zmcps-ko line with the HRP to DPC, line No. 623; format: in vivo, maize; conditions: 500 ppm (5 mM) DPC spray
Text: as §8, §9

B73 (WT) = test: Sensitivity of wild type maize B73 to DPC; format: in vivo; conditions: 500 ppm (5 mM) DPC spray
Experimental: as §9

maize Zhengdan 958 = conditions: 1000 mg/L DPC (Chen yin, 2012); cited from earlier work
[4] = 30 mg/L DPC spray, 12 days (step 4.2)
[5] = 500 mg/L DPC spray, 12 days (step 4.2)
[6] = line No. 443, 500 ppm (5 mM) DPC spray

C[N+]1(C)CCCCC1.[Cl-] [DPC, 1,1-dimethylpiperidinium chloride]
Plant height reduction rate (ZmCPS::ga1-5; 500 mg/L DPC, relative to 0 mg/L): 0.83% | Effect of DPC on plant height (in words) (ZmCPS::ga1-5; 30 and 500 mg/L DPC): no effect | Plant height (pSuper1300::ga1-5; 30 mg/L DPC spray): 6.54 ± 0.20 cm | Plant height reduction rate (pSuper1300::ga1-5; 30 mg/L DPC): 5.90% | Plant height (pSuper1300::ga1-5; 500 mg/L DPC spray): 6.21 ± 0.14 cm | Plant height reduction rate (pSuper1300::ga1-5; 500 mg/L DPC): 10.65% | Plant height (ga1-5; 30 mg/L DPC spray): 6.55 ± 0.10 cm | Plant height reduction rate (ga1-5; 30 mg/L DPC): 6.83% | Plant height (ga1-5; 500 mg/L DPC spray): 6.40 ± 0.12 cm | Plant height reduction rate (ga1-5; 500 mg/L DPC): 8.96% | Plant height (average) (HRP::ga1-1; [4]): 9.714 cm | Plant height (average) (HRP::ga1-1; 50 mg/L DPC spray, 12 days): 9.314 cm | Plant height (average) (HRP::ga1-1; 100 mg/L DPC spray, 12 days): 9.343 cm | Plant height (average) (HRP::ga1-1; 300 mg/L DPC spray, 12 days): 8.857 cm | Plant height (average) (HRP::ga1-1; [5]): 8.586 cm | Plant height (average) (HRP::ga1-1; 1000 mg/L DPC spray, 12 days): 7.243 cm | Plant height (average) (HRP::ga1-5; [4]): 11.93 cm | Plant height (average) (HRP::ga1-5; 50 mg/L DPC spray, 12 days): 9.843 cm | Plant height (average) (HRP::ga1-5; 100 mg/L DPC spray, 12 days): 10.14 cm | Plant height (average) (HRP::ga1-5; 300 mg/L DPC spray, 12 days): 9.957 cm | Plant height (average) (HRP::ga1-5; [5]): 9.857 cm | Plant height (average) (HRP::ga1-5; 1000 mg/L DPC spray, 12 days): 7.357 cm | Sensitivity of the plant to DPC (in words) ([1]; complementary plant, line No. 443 (FIG. 5), 500 ppm (5 mM) DPC spray): sensitive | Ear height [1, 6]: 80.0 | Plant height at tasseling stage [1, 6]: 187.9 | Plant height at 2 weeks after treatment ([1]; line No. 443, whole plant sprayed with 500 ppm (5 mM) DPC at 7 and 12 leaf expansion phase): 128.9 | Ear height [2]: 80.5 | Plant height at 2 weeks after treatment [2]: 133.2 | Plant height at tasseling stage [2]: 197.9 | Ear height [3]: 75.2 | Plant height at 2 weeks after treatment [3]: 133.5 | Plant height at tasseling stage [3]: 182.8 | Ear height (B73 (WT); B73 wild type): 91.3 | Plant height at 2 weeks after treatment (B73 (WT); B73 wild type): 151 | Plant height at tasseling stage (B73 (WT); B73 wild type): 207.5 | Sensitivity of the plant to DPC (in words) (B73 (WT); WT (B73)): insensitive | Plant height and stem diameter compared with control (maize Zhengdan 958): no significant difference
